Values joined by “and” are separate entries in the source; they are usually repeats but may differ in a detail not shown here. Equal values may be shown once.
Legend:
[1] = test system: B16.F10 tumor; assay: Efficacy and tolerability in mouse melanoma model B16.F10 (Example 61)
Method: Briefly, ATP and oxygen in viable cells reduce luciferin to oxyluciferin in the presence of luciferase to produce energy in the form of light. B16.F10 cells were grown in culture to 85-90% confluency in MEM-alpha medium supplemented with fetal bovine serum (FBS) and 1% penicillin/streptomycin. Cells were removed from the flask using 0.05% trypsin (passage=4), re-suspended in PBS (density=10×10^6 cells/mL) and were implanted subcutaneously (1×10^6 cells in 100 μL PBS/mouse) into the right flank of male C57BL/6 mice on day 1.
The treatments were administered IV into the tail vein at a dose volume of 10 ml/kg, beginning on post-implantation day 5, when the mean tumor volume was ca. 60 mm^3 Animals were monitored for any morbidity and adverse effects three times a week. In addition, body weight and tumor volume were also measured three times a week.
Tumor volume was calculated with (width×width×length)/2 mm^3 formula. Efficacy was determined by tumor growth inhibition (TGI), tumor growth delay (TGD) and survival. Tumor growth inhibition (TGI) is represented as % and calculated as (1−(treated tumor volume/control tumor volume))×100 when the control group mean tumor volume reached ≧3000 mm^3 Tumor growth delay (TGD) is calculated by subtracting the day when the vehicle treated group reached the maximum tumor size 3000 mm^3 from the day when the treatment group tumor size reached 3000 mm^3. The criterion at which a mouse was removed from the study was tumor volume ≧3000 mm^3.

[2] = test system: H1299 tumor; assay: Efficacy and tolerability in non-small cell lung carcinoma model H1299 (Example 60); settings: for Tumor growth inhibition (% TGI): 30 mg/kg IV 1/wk×2, 30 mg/kg
Method: H1299 cells were grown in culture to 85-90% confluency in RPMI medium supplemented with 10% fetal bovine serum (FBS), 1% glutamine and 1% penicillin/streptomycin. Cells were removed from the culture flask using 0.05% trypsin (passage=4), re-suspended in RPMI medium (density=50×10^6 cells/mL) and were implanted subcutaneously (5×10^6 cells in 100 μL RPMI medium/mouse) into the mammary fat pad area of male nu/nu mice on day 1.
The treatments were administered IV into the tail vein at a dose volume of 10 and 20 mL/kg for 30 and 60 mg/kg respectively, beginning on post-implantation day 30 when the mean tumor volume was ca. 170 mm^3 (small tumor group), and on day 37 when the mean tumor volume was ca. 440 mm^3 (large tumor group). Body weight and tumor volume were measured for three times a week during the dosing period and twice a week thereafter. In addition, animals were also monitored for any morbidity and adverse effects for three times a week during the dosing period and twice a week thereafter.
Tumor volume was calculated with (width×width×length)/2 mm^3 formula. Efficacy was determined by tumor growth inhibition (TGI), tumor growth delay (TGD) and survival. Tumor growth inhibition (TGI) is represented as % and calculated as (1−(treated tumor volume/control tumor volume))×100 when the control group mean tumor volume reached ≧1000 mm^3 Tumor growth delay (TGD) is calculated by subtracting the day when the vehicle treated group reached the maximum tumor size 1000 mm^3 from the day when the treatment group tumor size reached 1000 mm^3.

[3] = 30 mg/kg IV 1/wk×3, listed as free docetaxel
[4] = large tumor group, 30 mg/kg 1/wk×2
[5] = large tumor group, 60 mg/kg 1/wk×2
[6] = small tumor group, 30 mg/kg 1/wk×2
[7] = small tumor group, 60 mg/kg 1/wk×2

CC(=O)O[C@@]12CO[C@@H]1C[C@H](O)[C@@]1(C)C(=O)[C@H](O)C3=C(C)[C@@H](OC(=O)[C@H](O)[C@@H](NC(=O)OC(C)(C)C)c4ccccc4)C[C@@](O)([C@@H](OC(=O)c4ccccc4)[C@H]21)C3(C)C [Free docetaxel, docetaxel]
Day mean tumor volume endpoint (≧3000 mm^3) reached ([1]; 15 mg/kg IV 1/wk×3): 29 days | Day of 0% survival ([1]; 15 mg/kg IV 1/wk×3): 43 days | Day of 50% survival ([1]; 15 mg/kg IV 1/wk×3): 29 days | Increase in TGD ([1]; 15 mg/kg IV 1/wk×3): 45% | Maximum body weight loss ([1]; 15 mg/kg IV 1/wk×3): 2% | Tumor growth delay (TGD) ([1]; 15 mg/kg IV 1/wk×3): 9 days | Tumor growth inhibition (% TGI) ([1]; 15 mg/kg IV 1/wk×3): 75% | Tumor growth inhibition (% TGI) ([1]; 15 mg/kg IV 1/wk×3, listed as free docetaxel): 75% | Maximum body weight loss ([1]; 30 mg/kg IV 1/wk×3): 12% and 14% | Tumor growth delay (TGD) ([1]; 30 mg/kg IV 1/wk×3): 23 days and 18 days | Tumor growth inhibition (% TGI) ([1]; 30 mg/kg IV 1/wk×3): 92% and 81% | Day mean tumor volume endpoint (≧3000 mm^3) reached [1, 3]: 43 days and 38 days | Day of 0% survival [1, 3]: 45 days and 43 days | Day of 50% survival [1, 3]: 40 days and 36 days | Increase in TGD [1, 3]: 115% and 90% | Tumor growth delay (TGD) [1, 3]: 23 days and 18 days | Tumor growth inhibition (% TGI) [1, 3]: 92% and 81% | Day mean tumor volume endpoint (≧1000 mm^3) reached [2, 4]: 63 days | Day of 0% survival [2, 4]: 80 days | Day of 50% survival [2, 4]: 61 days | Hind limb paralysis [2, 4]: did not cause any significant body weight loss or hind limb paralysis | Increase in TGD [2, 4]: 43% | Maximum body weight loss [2, 4]: 19% | Tumor growth delay (TGD) [2, 4]: 19 days | Tumor shrinkage [2, 4]: no tumor shrinkage | Tumor growth inhibition (% TGI) ([2]; large tumor group): 49% | Tumor growth inhibition (% TGI) ([2]; large tumor group, listed as free docetaxel): 49% | Hind limb paralysis [2, 5]: severe hind limb paralysis | Maximum body weight loss [2, 5]: significant body weight loss | Day mean tumor volume endpoint (≧1000 mm^3) reached [2, 6]: 61 days | Day of 0% survival [2, 6]: 68 days | Day of 50% survival [2, 6]: 56 days | Hind limb paralysis [2, 6]: did not cause any significant body weight loss or hind limb paralysis | Increase in TGD [2, 6]: 39% | Maximum body weight loss [2, 6]: 18% | Tumor growth delay (TGD) [2, 6]: 17 days | Tumor growth inhibition (% TGI) ([2]; small tumor group): 64% | Tumor growth inhibition (% TGI) ([2]; small tumor group, listed as free docetaxel): 64% | Hind limb paralysis [2, 7]: severe hind limb paralysis | Maximum body weight loss [2, 7]: significant body weight loss

Source: US20110262490A1, “POLYMER-AGENT CONJUGATES, PARTICLES, COMPOSITIONS, AND RELATED METHODS OF USE” (priority 2009, published 2011)
